# Experiments:
# [1] = target: T1, recombinant renin in human plasma (Homo sapiens, UniProt P00797); assay: Inhibition of renin in human plasma (QFRET, plasma); assay type: biochemical; conditions: human EDTA plasma with 1 nM recombinant renin added; 37° C., 1 hour
# T1 construct: purchased Proteos
# T1 sequence (P00797 67-406): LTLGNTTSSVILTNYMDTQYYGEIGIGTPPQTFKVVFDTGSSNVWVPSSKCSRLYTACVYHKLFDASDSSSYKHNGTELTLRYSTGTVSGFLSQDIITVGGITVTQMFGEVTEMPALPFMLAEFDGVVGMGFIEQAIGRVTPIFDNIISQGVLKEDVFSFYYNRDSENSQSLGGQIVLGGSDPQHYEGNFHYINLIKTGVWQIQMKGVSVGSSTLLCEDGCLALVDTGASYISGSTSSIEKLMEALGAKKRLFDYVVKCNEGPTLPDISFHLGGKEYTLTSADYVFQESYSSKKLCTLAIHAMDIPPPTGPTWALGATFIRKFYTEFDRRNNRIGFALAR
# Description: Inhibition of Renin in Human Plasma
# Human EDTA-collected plasma is rapidly thawed in warm water and centrifuged at 2900 g for 15 minutes at 4° C. The supernatant is collected and recombinant renin (Proteos) is added at a final concentration of 1 nM. The plasma is transferred to a Costar black 384 well plate (#3573). Renin inhibitors are added from a 17.5 fold concentrated DMSO solution and pre-incubated at 37° C. for 10 minutes. The internally-quench fluorescent peptide QXL520™-[…](5-FAM) (Anaspec), SEQ ID NO: 2, is diluted in 3M Tris pH 7.2, 200 mM EDTA and added to the plasma. The final concentrations are: 6 μM substrate, 342 mM Tris, 23 mM EDTA. The plate is incubated at 37° C. for 1 hour. The plate is read in a SpectraMax Gemini EM reader set at an excitation wavelength of 490 nm and an emission wavelength of 520 nm at times 0 and 1 hour. Background fluorescence at t=0 is subtracted from the measurement at t=1 hour. Inhibitory activity of the compounds is expressed as IC50.
# Human recombinant renin = target: T2, Human recombinant renin (Homo sapiens, UniProt P00797); assay: Inhibition of human recombinant renin (QFRET, buffer); assay type: biochemical; conditions: buffer: 50 mM MOPS pH 7.4, 100 mM NaCl, 0.002% Tween 20; 37° C., 3 hours
# T2 construct: purchased Proteos
# T2 sequence (P00797 67-406): T1 sequence (P00797 67-406)
# Description: Inhibition of Human Recombinant Renin
# Human recombinant renin (Proteos) in 50 mM MOPS pH 7.4, 100 mM NaCl, 0.002% Tween 20 at a final concentration of […] is incubated with inhibitors from a 50 fold concentrated DMSO solution and 6 μM of an internally-quenched fluorescent peptide: DNP-[…]D,L-Amp (SEQ ID NO: 1); Paschalidou K. et al., Biochem J., 2004, 382, 1031). The reactions take place in a Costar 384 well black plate (#3573) at 37° C. for 3 hours. Fluorescence is measured at times 0 and 3 hours with a SpectraMax Gemini EM reader set at an excitation wavelength of 328 nm and at an emission wavelength of 388 nm. Background fluorescence at t=0 is subtracted from the measurement at t=3 hours. Inhibitory activity of the compounds is expressed as IC50.
IC50 [1] [nM],IC50 (Human recombinant renin) [nM],SMILES
5,0.5,CC(=O)NCCc1ccccc1-c1ccc([C@H]2CNCC[C@]2(O)c2ccc(F)c(F)c2)c(C)c1 (racemic) [Structure 51]
1630,150,COCCCc1ccccc1-c1ccc([C@H]2CNCC[C@@H]2c2ccc(N)nc2)c(Cl)c1 (racemic) [Structure 52]
250,12,COCCCc1ccccc1-c1ccc([C@H]2CNCC[C@@H]2c2cccnc2N)c(Cl)c1 (racemic) [Structure 53]
1.2,0.13,COC[C@H](C)COCc1ccc([C@@]2(O)CCNC[C@@H]2c2ccc(-c3ccccc3CCNC(C)=O)cc2C)cc1 (racemic) [Structure 54]
0.95,0.17,COCC(F)(F)COCc1ccc([C@@]2(O)CCNC[C@@H]2c2ccc(-c3ccccc3CCNC(C)=O)cc2C)cc1 (racemic) [Structure 55]
3.8,0.26,CC(=O)NCCc1ccccc1-c1ccc([C@H]2CNCC[C@]2(O)c2ccc(COCCOC(C)C)cc2)c(C)c1 (racemic) [Structure 56]
80,6.4,COCCCc1ccccc1-c1ccc([C@H]2CNCC[C@@H]2c2ccn(C)c(=O)c2)c(Cl)c1 (racemic) [Structure 57]
7.1,3.6,CC(=O)NCCc1ccccc1-c1ccc([C@H]2CNCC[C@@H]2c2ccn(C)c(=O)c2)c(Cl)c1 (racemic) [Structure 58]
7.9,6.2,CCC(=O)NCCc1ccccc1-c1ccc([C@H]2CNCC[C@@H]2c2ccn(C)c(=O)c2)c(Cl)c1 (racemic) [Structure 61]
4.9,4.2,COC(=O)NCCc1ccccc1-c1ccc([C@H]2CNCC[C@@H]2c2ccn(C)c(=O)c2)c(Cl)c1 (racemic) [Structure 62]
24,16,CCOC(=O)NCCc1ccccc1-c1ccc([C@H]2CNCC[C@@H]2c2ccn(C)c(=O)c2)c(Cl)c1 (racemic) [Structure 63]
77,110,COCC(=O)NCCc1ccccc1-c1ccc([C@H]2CNCC[C@@H]2c2ccn(C)c(=O)c2)c(Cl)c1 (racemic) [Structure 64]
6,6.5,CC(=O)NCCc1ccc(F)cc1-c1ccc([C@H]2CNCC[C@@H]2c2ccn(C)c(=O)c2)c(Cl)c1 (racemic) [Structure 65]
4900,1320,COc1cc(CCNC(C)=O)c(-c2ccc([C@H]3CNCC[C@@H]3c3ccn(C)c(=O)c3)c(Cl)c2)cc1OC (racemic) [Structure 66]
28,6.1,CC(=O)NCCc1ccccc1-c1ccc([C@H]2CNCC[C@@H]2c2cccnc2)c(C)c1 [Structure 4]
7280,1410,CC(=O)NCCc1ccccc1-c1ccc([C@@H]2CNCC[C@H]2c2cccnc2)c(C)c1 [Structure 5]
4.1,1.5,CC(=O)NCCc1ccccc1-c1ccc([C@H]2CNCC[C@@H]2c2cccnc2)c(Cl)c1 [Structure 13]
> 9500,2630,CC(=O)NCCc1ccccc1-c1ccc([C@@H]2CNCC[C@H]2c2cccnc2)c(Cl)c1 [Structure 14]
16,0.59,CC(=O)NCCc1ccccc1-c1ccc([C@H]2CNCC[C@@H]2c2cc(F)cc(F)c2)c(C)c1 [Structure 16]
11600,530,CC(=O)NCCc1ccccc1-c1ccc([C@@H]2CNCC[C@H]2c2cc(F)cc(F)c2)c(C)c1 [Structure 17]
3.4,2.1,CC(=O)NCCc1ccccc1-c1ccc([C@H]2CNCC[C@@H]2c2ccn(C)c(=O)c2)c(Cl)c1 [Structure 59]
1350,710,CC(=O)NCCc1ccccc1-c1ccc([C@@H]2CNCC[C@H]2c2ccn(C)c(=O)c2)c(Cl)c1 [Structure 60]
8650,400,O[C@]1(c2ccc(F)c(F)c2)CCNC[C@@H]1c1cc(-c2ccc(F)cc2Br)no1 [Structure 67]
> 9500,1210,O[C@]1(c2ccc(F)c(F)c2)CCNC[C@@H]1c1cc(-c2c(Cl)cccc2Cl)no1 [Structure 68]

IC50 [1] [nM],IC50 (Human recombinant renin) [nM],SMILES
130,3.7,O[C@]1(c2ccc(F)c(F)c2)CCNC[C@@H]1c1onc(-c2c(Cl)cccc2Cl)c1Br [Structure 70]
7.8,0.21,O[C@]1(c2ccc(F)c(F)c2)CCNC[C@@H]1c1onc(-c2cccc(Cl)c2Cl)c1Br [Structure 71]
27,1.1,O[C@]1(c2ccc(F)c(F)c2)CCNC[C@@H]1c1onc(-c2ccccc2Cl)c1Br [Structure 72]
21,0.47,Cc1cccc(-c2noc([C@H]3CNCC[C@]3(O)c3ccc(F)c(F)c3)c2Br)c1C [Structure 73]
430,4.9,Cc1ccc(Cl)c(-c2noc([C@H]3CNCC[C@]3(O)c3ccc(F)c(F)c3)c2Br)c1F [Structure 74]
4.7,0.064,O[C@]1(c2ccc(F)c(F)c2)CCNC[C@@H]1c1onc(-c2cccc3ccccc23)c1Br [Structure 75]
1.6,0.36,CC(=O)NCCc1ccccc1-c1noc([C@H]2CNCC[C@]2(O)c2ccc(F)c(F)c2)c1Br [Structure 76]
7.9,0.25,Fc1ccc([C@@]2(F)CCNC[C@@H]2c2onc(-c3cccc(Cl)c3Cl)c2Br)cc1F [Structure 77]
24,1.8,CC(O)c1c([C@H]2CNCC[C@]2(O)c2ccc(F)c(F)c2)noc1-c1c(Cl)cccc1Cl (stereo partly drawn) [Structure 78]
> 28000,1330,O[C@]1(c2ccc(F)c(F)c2)CCNC[C@@H]1c1cc(-c2c(Cl)cccc2Cl)on1 [Structure 79]
0.6,0.23,CC(=O)NCCc1ccccc1-c1onc([C@H]2CNCC[C@]2(O)c2ccc(F)c(F)c2)c1Br [Structure 80]
0.44,0.053,CC(=O)NCCc1ccccc1-c1onc([C@H]2CNCC[C@]2(F)c2ccc(F)c(F)c2)c1Br [Structure 81]
1.2,0.16,CO[C@]1(c2ccc(F)c(F)c2)CCNC[C@@H]1c1noc(-c2ccccc2CCNC(C)=O)c1Br [Structure 82]
4.2,2.8,CC(=O)NCCc1ccccc1-c1onc([C@H]2CNCC[C@]2(O)c2ccc(F)c(F)c2)c1C(C)=O [Structure 83]
93,10,COC(=O)NCCc1ccccc1-c1onc([C@H]2CNCC[C@]2(O)c2ccc(F)c(F)c2)c1C(C)=O [Structure 84]
4.5,4.3,CC(=O)NCCc1ccccc1-c1onc([C@H]2CNCC[C@]2(O)c2ccc(F)c(F)c2)c1C(C)O (stereo partly drawn) [Structure 85]
0.68,0.14,CC(=O)NCCc1cc(F)ccc1-c1onc([C@H]2CNCC[C@]2(O)c2ccc(F)c(F)c2)c1Br [Structure 86]
0.62,0.16,CC(=O)NCCc1c(F)cccc1-c1onc([C@H]2CNCC[C@]2(O)c2ccc(F)c(F)c2)c1Br [Structure 87]
1,0.38,O=C(CO)NCCc1ccccc1-c1onc([C@H]2CNCC[C@]2(O)c2ccc(F)c(F)c2)c1Br [Structure 88]
1.2,0.32,COC[C@H](C)COCc1ccc([C@@]2(O)CCNC[C@@H]2c2noc(-c3ccccc3CCNC(C)=O)c2Br)cc1 [Structure 89]
4.4,0.63,CC(=O)NCCc1ccccc1-c1onc([C@H]2CNCC[C@]2(OCc2c[nH]nn2)c2ccc(F)c(F)c2)c1Br [Structure 90]
9470,2900,O[C@]1(c2ccc(F)c(F)c2)CCNC[C@@H]1c1cn(-c2ccc(F)cc2Br)nn1 [Structure 91]
> 28000,1990,Cn1c(-c2ccccc2)cnc1[C@H]1CNCC[C@]1(O)c1ccc(F)c(F)c1 [Structure 92]
0.62,0.14,C[C@H]1C[C@H](c2ccc(F)c(F)c2)[C@@H](c2nnc(-c3cccc(Cl)c3Cl)n2C2CC2)CN1 [Structure 93]
